Reference: patent US6713486B1, “Antiviral 2,4-pyrimidinedione derivatives and process for the preparation thereof” (Korea Research Institute of Chemical Technology, priority 1999, dated 2004)
Like-named read-outs stand apart in the source and are kept apart here.

Legend:
Y181C HIV-1 mutant [1] = test: Antiviral activity against mutant HIV-1 (Y181C) by the MTT method; type: cell-based; settings: read-out: EC50: Effective concentration for the inhibition of the proliferation of mutant HIV-1 by 50%; Y181C mutant HIV-1, MTT
Description: Antiviral activities of the inventive compounds were determined against Y181C which is representative HIV-1 mutant having high resistance against anti-HIV-1 nonnucleosides, e.g., Nevirapine, by the MTT method. MKC-442 was employed as a comparative compound.

HIV-1 = settings: for ED50: Effective concentration for the inhibition of the proliferation of HIV-1 by 50%: HIV-1 infected MT-4 cells, MTT; for S.I. Selectivity index (CD50/ED50): CD50/ED50, MT-4 cells
Description: First, MT-4 cells were suspended in a culture medium at a concentration of 1×10^4 cells/ml and infected with 500 TCID50 (50% cell culture infective dose)/well of HIV-1.

MT-4 cells = settings: mock-infected MT-4 cells, MTT
Y181C HIV-1 mutant [2] = settings: read-out: EC50: Effective concentration for the inhibition of the proliferation of mutant HIV-1 by 50%; Y181C mutant HIV-1; Reference: J. Med. Chem., 42, 4500 (1999); cited from earlier work

SMILES: Cc1cc(C)cc(C(=O)c2c(C(C)C)c(=O)[nH]c(=O)n2Cc2ccncc2)c1 [Compound 1, 1-(4′-Picolyl)-5-isopropyl-6-(3′,5′-dimethylbenzoyl)-2,4-pyrimidinedione]
- EC50 (Y181C HIV-1 mutant [1]): 0.005 to 0.014 µM
- ED50: Effective concentration for the inhibition of the proliferation of HIV-1 by 50% (HIV-1): 2.6 ng/mL
- CD50: Cytotoxic concentration that causes death of MT-4 cells by 50% (MT-4 cells): 22.6 µg/mL

SMILES: Cc1cc(C)cc(C(=O)c2c(C(C)C)c(=O)[nH]c(=O)n2Cc2cccnc2)c1 [Compound 2, 1-(3′-Picolyl)-5-isopropyl-6-(3′, 5′-dimethylbenzoyl)-2,4-pyrimidinedione]
- ED50: Effective concentration for the inhibition of the proliferation of HIV-1 by 50% (HIV-1): 3.6 ng/mL
- CD50: Cytotoxic concentration that causes death of MT-4 cells by 50% (MT-4 cells): 27.2 µg/mL

SMILES: Cc1cc(C)cc(C(=O)c2c(C(C)C)c(=O)[nH]c(=O)n2Cc2cc(F)cc(F)c2)c1 [Compound 43]
- ED50: Effective concentration for the inhibition of the proliferation of HIV-1 by 50% (HIV-1): 3.5 ng/mL
- CD50: Cytotoxic concentration that causes death of MT-4 cells by 50% (MT-4 cells): 7.16 µg/mL

SMILES: Cc1cc(C)cc(C(=O)c2c(C(C)C)c(=O)[nH]c(=O)n2Cc2cc[n+]([O-])cc2C)c1 [Compound 69, 1-(N-oxo-3′-Methyl-4′-picolyl)-5-isopropyl-6-(3′, 5′-dimethylbenzoyl)-2,4-pyrimidinedione]
- ED50: Effective concentration for the inhibition of the proliferation of HIV-1 by 50% (HIV-1): 12.5 ng/mL
- CD50: Cytotoxic concentration that causes death of MT-4 cells by 50% (MT-4 cells): 48.25 µg/mL

SMILES: Cc1cc(C)cc(C(=O)c2c(C(C)C)c(=O)[nH]c(=O)n2Cc2c(C)cncc2CO)c1 [Compound 76, 1-(3′-Hydroxymethyl-5′-methyl-4′-picolyl)-5-isopropyl-6-(3′, 5′-dimethylbenzoyl)-2,4-pyrimidinedione]
- ED50: Effective concentration for the inhibition of the proliferation of HIV-1 by 50% (HIV-1): 8.4 ng/mL
- CD50: Cytotoxic concentration that causes death of MT-4 cells by 50% (MT-4 cells): 38.39 µg/mL

SMILES: Cc1cc(C)cc(Nc2c(C(C)C)c(=O)[nH]c(=O)n2Cc2ccncc2)c1 [Compound 66, 1-(4′-Picolyl)-5-isopropyl-6-(3′, 5′-dimethylphenylamino)-2,4-pyrimidinedione]
- ED50: Effective concentration for the inhibition of the proliferation of HIV-1 by 50% (HIV-1): 80 ng/mL
- CD50: Cytotoxic concentration that causes death of MT-4 cells by 50% (MT-4 cells): >100 µg/mL

SMILES: COC(=O)c1cnccc1Cn1c(C(=O)c2cc(C)cc(C)c2)c(C(C)C)c(=O)[nH]c1=O [Compound 78, 1-(3′-Methoxycarbonyl-4′-picolyl)-5-isopropyl-6-(31,51-dimethylbenzoyl)-2,4-pyrimidinedione]
- ED50: Effective concentration for the inhibition of the proliferation of HIV-1 by 50% (HIV-1): 7.5 ng/mL
- CD50: Cytotoxic concentration that causes death of MT-4 cells by 50% (MT-4 cells): 40.79 µg/mL

SMILES: Cc1cc(Cl)cc(C(=O)c2c(C(C)C)c(=O)[nH]c(=O)n2Cc2c(C)c[n+]([O-])cc2C)c1 [Compound 71, 1-(N-oxo-3′,5′-Dimethyl-4′-picolyl)-5-isopropyl-6-(3′,-chloro-5-methylbenzoyl)-2,4-pyrimidinedione]
- ED50: Effective concentration for the inhibition of the proliferation of HIV-1 by 50% (HIV-1): 8.2 ng/mL
- CD50: Cytotoxic concentration that causes death of MT-4 cells by 50% (MT-4 cells): 25.44 µg/mL

SMILES: Cc1cc(C)cc(C(=O)c2c(C(C)C)c(=O)[nH]c(=O)n2Cc2cc[n+]([O-])cc2)c1 [Compound 68, 1-(N-oxo-4′-Picolyl)-5-isopropyl-6-(3′,5′-dimethylbenzoyl)-2,4-pyrimidinedione]
- ED50: Effective concentration for the inhibition of the proliferation of HIV-1 by 50% (HIV-1): 14.5 ng/mL
- CD50: Cytotoxic concentration that causes death of MT-4 cells by 50% (MT-4 cells): 56.9 µg/mL

SMILES: Cc1cc(C)cc(C(=O)c2c(C(C)C)c(=O)[nH]c(=O)n2Cc2c(C)c[n+]([O-])cc2C)c1 [Compound 70, 1-(N-oxo-3′, 5-Dimethyl-4′-picolyl)-5-Isopropyl-6-(3′, 5′-dimethylbenzoyl)-2,4-Pyrimidinedione]
- ED50: Effective concentration for the inhibition of the proliferation of HIV-1 by 50% (HIV-1): 5.5 ng/mL
- CD50: Cytotoxic concentration that causes death of MT-4 cells by 50% (MT-4 cells): 25.84 µg/mL

SMILES: Cc1cc(Cl)cc(C(=O)c2c(C(C)C)c(=O)[nH]c(=O)n2Cc2ccncc2C(N)=O)c1 [Compound 80, 1-(3′-Carbamoyl-4′-picolyl)-5-isopropyl-6-(3′-chloro-5′-methylbenzoyl)-2,4-pyrimidinedione]
- ED50: Effective concentration for the inhibition of the proliferation of HIV-1 by 50% (HIV-1): 11.1 ng/mL
- CD50: Cytotoxic concentration that causes death of MT-4 cells by 50% (MT-4 cells): 27.83 µg/mL

SMILES: CCOCn1c(Cc2ccccc2)c(C(C)C)c(=O)[nH]c1=O [MKC-442, 6-benzyl-1-ethoxymethyl-5-isopropyluracil, reference compound]
- S.I. Selectivity index (CD50/ED50) (HIV-1): 5,544
- ED50: Effective concentration for the inhibition of the proliferation of HIV-1 by 50% (HIV-1): 5 ng/mL
- EC50 (Y181C HIV-1 mutant [2]): 13.4 µM

SMILES: CC(=O)OCc1cncc(C)c1Cn1c(C(=O)c2cc(C)cc(C)c2)c(C(C)C)c(=O)[nH]c1=O [Compound 73, 1-(3′-Acetoxymethyl-5′-methyl-4′-picolyl)-5-isopropyl-6-(3′,5′-dimethylbenzoyl)-2,4-pyrimidinedione]
- ED50: Effective concentration for the inhibition of the proliferation of HIV-1 by 50% (HIV-1): 6.7 ng/mL
- CD50: Cytotoxic concentration that causes death of MT-4 cells by 50% (MT-4 cells): 39.65 µg/mL

SMILES: Cc1cc(C)cc(C(=O)c2c(C(C)C)c(=O)[nH]c(=O)n2Cc2cc(C(F)(F)F)cc(C(F)(F)F)c2)c1 [Compound 44]
- ED50: Effective concentration for the inhibition of the proliferation of HIV-1 by 50% (HIV-1): 1800 ng/mL
- CD50: Cytotoxic concentration that causes death of MT-4 cells by 50% (MT-4 cells): 8.17 µg/mL

SMILES: CCc1c(Nc2cc(C)cc(C)c2)n(Cc2ccncc2)c(=O)[nH]c1=O [Compound 67, 1-(4′-Picolyl)-5-ethyl-6-(3′, 5′-dimethylphenylamino)-2,4-pyrimidinedione]
- ED50: Effective concentration for the inhibition of the proliferation of HIV-1 by 50% (HIV-1): 420 ng/mL
- CD50: Cytotoxic concentration that causes death of MT-4 cells by 50% (MT-4 cells): 54.5 µg/mL

SMILES: Cc1cc(Cl)cc(C(=O)c2c(C(C)C)c(=O)[nH]c(=O)n2Cc2c(C)cncc2CO)c1 [Compound 77, 1-(3′-Hydroxymethyl-5′-methyl-4′-picolyl)-5-isopropyl-6-(3′-chloro-5′-methylbenzoyl)-2,4-pyrimidinedione]
- ED50: Effective concentration for the inhibition of the proliferation of HIV-1 by 50% (HIV-1): 11.5 ng/mL
- CD50: Cytotoxic concentration that causes death of MT-4 cells by 50% (MT-4 cells): 23.51 µg/mL

SMILES: Cc1cc(Cl)cc(Cn2c(C(=O)c3cc(C)cc(C)c3)c(C(C)C)c(=O)[nH]c2=O)c1 [Compound 40]
- ED50: Effective concentration for the inhibition of the proliferation of HIV-1 by 50% (HIV-1): 34.8 ng/mL
- CD50: Cytotoxic concentration that causes death of MT-4 cells by 50% (MT-4 cells): 7.97 µg/mL

SMILES: Cc1cc(C)cc(C(=O)c2c(C(C)C)c(=O)[nH]c(=O)n2Cc2ccccn2)c1 [Compound 3, 1-(2′-Picolyl)-5-isopropyl-6-(3′, 5′-dimethylbenzoyl)-2,4-pyrimidinedione]
- ED50: Effective concentration for the inhibition of the proliferation of HIV-1 by 50% (HIV-1): 5.5 ng/mL
- CD50: Cytotoxic concentration that causes death of MT-4 cells by 50% (MT-4 cells): 26.1 µg/mL

SMILES: Cc1cc(C)cc(C(=O)c2c(C(C)C)c(=O)[nH]c(=O)n2Cc2ccc(N)cc2)c1 [Compound 81, 1-(4′-Aminobenzyl)-5-isopropyl-6-(3′,5′-dimethylbenzoyl)-2,4-pyrimidinedione]
- S.I. Selectivity index (CD50/ED50) (HIV-1): 648
- ED50: Effective concentration for the inhibition of the proliferation of HIV-1 by 50% (HIV-1): 15 ng/mL
- CD50: Cytotoxic concentration that causes death of MT-4 cells by 50% (MT-4 cells): 9.63 µg/mL

SMILES: Cc1cc(C)cc(C(=O)c2c(C(C)C)c(=O)[nH]c(=O)n2Cc2ccncc2C(N)=O)c1 [Compound 79, 1-(3′-Carbamoyl-4′-picolyl)-5-isopropyl-6-(3′,5′-dimethylbenzoyl)-2,4-pyrimidinedione]
- ED50: Effective concentration for the inhibition of the proliferation of HIV-1 by 50% (HIV-1): 9.1 ng/mL
- CD50: Cytotoxic concentration that causes death of MT-4 cells by 50% (MT-4 cells): >100 µg/mL

SMILES: CC(=O)OCc1cnccc1Cn1c(C(=O)c2cc(C)cc(C)c2)c(C(C)C)c(=O)[nH]c1=O [Compound 72, 1-(3′-Acetoxymethyl-4′-picolyl)-5-Isopropyl-6-(3′,5′-dimethylbenzoyl)-2,4-pyrimidinedione]
- ED50: Effective concentration for the inhibition of the proliferation of HIV-1 by 50% (HIV-1): 8.8 ng/mL
- CD50: Cytotoxic concentration that causes death of MT-4 cells by 50% (MT-4 cells): 38.49 µg/mL

SMILES: Cc1cc(C)cc(C(=O)c2c(C(C)C)c(=O)[nH]c(=O)n2Cc2ccncc2CO)c1 [Compound 75, 1-(3′-Hydroxymethyl-4′-picolyl)-5-isopropyl-6-(3′,5′-dimethylbenzoyl)-2,4-pyrimidinedione]
- ED50: Effective concentration for the inhibition of the proliferation of HIV-1 by 50% (HIV-1): 3.1 ng/mL
- CD50: Cytotoxic concentration that causes death of MT-4 cells by 50% (MT-4 cells): 42.06 µg/mL
